In ChEMBL document CHEMBL1201862, “PubChem BioAssay data set” (2004):
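A five-concentration, 48-hour dose response in 96-well plates underlies each endpoint, interpolated linearly between surrounding concentrations. GI50: concentration for 50% inhibition of growth.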 Active and inactive are the calls of the source. Rule as the data show it: active = GI50 up to about 1.1 µM and inactive = higher.

Experiments:
Experiment in all cases: NCI tumour cell line growth inhibition, 48 h
T47D = system: T47D
CAKI-1 = system: CAKI-1
HOP-62 = system: HOP-62
HOP-92 = system: HOP-92
M14 = system: M14
MDA-MB-231 = system: MDA-MB-231
786-0 = system: 786-0
HT-29 = system: HT-29
SF-268 = system: SF-268
HCT-116 = system: HCT-116
PC-3 = system: PC-3
SK-MEL-5 = system: SK-MEL-5
SK-MEL-28 = system: SK-MEL-28
SK-OV-3 = system: SK-OV-3
ACHN = system: ACHN
MDA-N = system: MDA-N
Malme-3M = system: Malme-3M
SR = system: SR
CCRF-CEM = system: CCRF-CEM
HL-60 = system: HL-60

**Q.** What does the source list for `COc1cccc(CSCC(=O)O)c1`?
**A.** GI50 (T47D): > 100 µM (inactive); GI50 (CAKI-1): > 100 µM (inactive); GI50 (HOP-62): > 100 µM (inactive); GI50 (HOP-92): > 100 µM (inactive); GI50 (M14): > 100 µM (inactive); GI50 (MDA-MB-231): > 100 µM (inactive); GI50 (786-0): > 100 µM (inactive); GI50 (HT-29): > 100 µM (inactive); GI50 (SF-268): > 100 µM (inactive); GI50 (HCT-116): > 100 µM (inactive); GI50 (PC-3): > 100 µM (inactive); GI50 (SK-MEL-5): > 100 µM (inactive); GI50 (SK-MEL-28): > 100 µM (inactive); GI50 (SK-OV-3): > 100 µM (inactive); GI50 (ACHN): > 100 µM (inactive); GI50 (MDA-N): > 100 µM (inactive); GI50 (Malme-3M): > 100 µM (inactive)

**Q.** What does the source list for `COc1cc(/C=C2\CCC/C(=C\c3cc(OC)c(O)c(OC)c3)C2=O)cc(OC)c1O`?
**A.** GI50 (T47D): 2.79 µM (inactive); GI50 (CAKI-1): 1.84 µM (inactive); GI50 (HOP-62): 1.8 µM (inactive); GI50 (M14): 1.88 µM (inactive); GI50 (MDA-MB-231): 2.71 µM (inactive); GI50 (786-0): 1.7 µM (inactive); GI50 (HT-29): 12.9 µM (inactive); GI50 (SF-268): 2.61 µM (inactive); GI50 (HCT-116): 1.32 µM (inactive); GI50 (PC-3): 3.35 µM (inactive); GI50 (SR): 3.8 µM (inactive); GI50 (SK-MEL-5): 2.28 µM (inactive); GI50 (CCRF-CEM): 0.43 µM (active); GI50 (SK-MEL-28): 2.69 µM (inactive); GI50 (SK-OV-3): 1.81 µM (inactive); GI50 (ACHN): 1.22 µM (inactive); GI50 (MDA-N): 1.79 µM (inactive); GI50 (HL-60): 1.72 µM (inactive); GI50 (Malme-3M): 1.51 µM (inactive)

**Q.** Which GI50 (T47D) does the source give for `CCn1ncc2c(=O)n3ncn(-c4ccc(Br)cc4)c3nc21` here?
**A.** > 100 µM (inactive)

**Q.** And the GI50 (HOP-62)?
**A.** > 100 µM (inactive)

**Q.** What about the GI50 (M14) of the same compound?
**A.** > 100 µM (inactive)

**Q.** What about the GI50 (MDA-MB-231) of the same compound?
**A.** > 100 µM (inactive)

**Q.** What about the GI50 (786-0) of the same compound?
**A.** > 100 µM (inactive)

**Q.** What about the GI50 (HT-29) of the same compound?
**A.** > 100 µM (inactive)

**Q.** And the GI50 (SF-268)?
**A.** > 100 µM (inactive)

**Q.** And the GI50 (HCT-116)?
**A.** > 100 µM (inactive)

**Q.** And the GI50 (PC-3)?
**A.** > 100 µM (inactive)

**Q.** What about the GI50 (SR) of the same compound?
**A.** 58.1 µM (inactive)

**Q.** What about the GI50 (SK-MEL-5) of the same compound?
**A.** > 100 µM (inactive)

**Q.** And the GI50 (CCRF-CEM)?
**A.** > 100 µM (inactive)

**Q.** And the GI50 (SK-MEL-28)?
**A.** > 100 µM (inactive)

**Q.** And the GI50 (SK-OV-3)?
**A.** > 100 µM (inactive)

**Q.** And the GI50 (ACHN)?
**A.** > 100 µM (inactive)

**Q.** And the GI50 (MDA-N)?
**A.** > 100 µM (inactive)

**Q.** And the GI50 (HL-60)?
**A.** > 100 µM (inactive)

**Q.** And the GI50 (Malme-3M)?
**A.** > 100 µM (inactive)

**Q.** Which GI50 (T47D) does the source give for `COc1ccc(C2SC(=N)Nc3c2c(C)nn3C(=O)Cc2ccccc2)cc1` (stereo not drawn) here?
**A.** > 100 µM (inactive)

**Q.** And the GI50 (CAKI-1)?
**A.** > 100 µM (inactive)

**Q.** And the GI50 (HOP-62)?
**A.** > 100 µM (inactive)

**Q.** What about the GI50 (M14) of the same compound?
**A.** > 100 µM (inactive)

**Q.** And the GI50 (MDA-MB-231)?
**A.** > 100 µM (inactive)

**Q.** What about the GI50 (786-0) of the same compound?
**A.** > 100 µM (inactive)

**Q.** What about the GI50 (HT-29) of the same compound?
**A.** > 100 µM (inactive)

**Q.** What about the GI50 (SF-268) of the same compound?
**A.** > 100 µM (inactive)

**Q.** And the GI50 (HCT-116)?
**A.** > 100 µM (inactive)

**Q.** What about the GI50 (PC-3) of the same compound?
**A.** > 100 µM (inactive)

**Q.** And the GI50 (SR)?
**A.** > 100 µM (inactive)

**Q.** And the GI50 (SK-MEL-5)?
**A.** > 100 µM (inactive)

**Q.** And the GI50 (CCRF-CEM)?
**A.** > 100 µM (inactive)

**Q.** And the GI50 (SK-MEL-28)?
**A.** > 100 µM (inactive)

**Q.** And the GI50 (SK-OV-3)?
**A.** > 100 µM (inactive)

**Q.** What about the GI50 (ACHN) of the same compound?
**A.** > 100 µM (inactive)

**Q.** What about the GI50 (MDA-N) of the same compound?
**A.** > 100 µM (inactive)

**Q.** What about the GI50 (HL-60) of the same compound?
**A.** > 100 µM (inactive)

**Q.** And the GI50 (Malme-3M)?
**A.** > 100 µM (inactive)

**Q.** Which GI50 (T47D) does the source give for `Cc1ccc(C2(c3ccc(C)c(O)c3C)CCN(C)CC2)c(C)c1O` here?
**A.** 64.6 µM (inactive)

**Q.** What about the GI50 (CAKI-1) of the same compound?
**A.** > 100 µM (inactive)

**Q.** What about the GI50 (HOP-62) of the same compound?
**A.** 51.2 µM (inactive)

**Q.** What about the GI50 (HOP-92) of the same compound?
**A.** > 100 µM (inactive)

**Q.** What about the GI50 (M14) of the same compound?
**A.** 45.8 µM (inactive)

**Q.** What about the GI50 (MDA-MB-231) of the same compound?
**A.** 34.8 µM (inactive)

**Q.** And the GI50 (786-0)?
**A.** 51.2 µM (inactive)

**Q.** And the GI50 (HT-29)?
**A.** 45.1 µM (inactive)

**Q.** And the GI50 (SF-268)?
**A.** > 100 µM (inactive)

**Q.** And the GI50 (HCT-116)?
**A.** 38.5 µM (inactive)

**Q.** And the GI50 (PC-3)?
**A.** 35 µM (inactive)

**Q.** What about the GI50 (SR) of the same compound?
**A.** 49.8 µM (inactive)

**Q.** And the GI50 (SK-MEL-5)?
**A.** > 100 µM (inactive)

**Q.** And the GI50 (CCRF-CEM)?
**A.** 60.1 µM (inactive)

**Q.** And the GI50 (SK-MEL-28)?
**A.** 30.4 µM (inactive)

**Q.** What about the GI50 (ACHN) of the same compound?
**A.** > 100 µM (inactive)

**Q.** And the GI50 (MDA-N)?
**A.** 58.5 µM (inactive)

**Q.** What about the GI50 (Malme-3M) of the same compound?
**A.** 52.7 µM (inactive)

**Q.** Which results are given for `COc1ccc(N2C(=O)CC(c3c[nH]c4ncccc34)C2=O)cc1` (stereo not drawn)?
**A.** GI50 (T47D): 24.1 µM (inactive); GI50 (CAKI-1): 19.7 µM (inactive); GI50 (HOP-62): > 100 µM (inactive); GI50 (HOP-92): 19.7 µM (inactive); GI50 (M14): 23 µM (inactive); GI50 (MDA-MB-231): 20 µM (inactive); GI50 (786-0): 22.3 µM (inactive); GI50 (HT-29): 19.8 µM (inactive); GI50 (SF-268): > 100 µM (inactive); GI50 (HCT-116): 22.5 µM (inactive); GI50 (PC-3): 19.4 µM (inactive); GI50 (SK-MEL-5): > 100 µM (inactive); GI50 (CCRF-CEM): 6.4 µM (inactive); GI50 (SK-MEL-28): 29 µM (inactive); GI50 (SK-OV-3): > 100 µM (inactive); GI50 (ACHN): 21.2 µM (inactive); GI50 (MDA-N): 14.2 µM (inactive); GI50 (HL-60): 11.5 µM (inactive); GI50 (Malme-3M): 22 µM (inactive)

**Q.** Which GI50 (T47D) does the source give for `Cc1nc(O)nc(N/N=C/c2c3ccccc3c(Cl)c3ccccc23)c1C(=O)Nc1ccc(Cl)cc1` here?
**A.** > 100 µM (inactive)

**Q.** What about the GI50 (CAKI-1) of the same compound?
**A.** 99.5 µM (inactive)

**Q.** And the GI50 (HOP-62)?
**A.** 34.7 µM (inactive)

**Q.** And the GI50 (M14)?
**A.** 79.3 µM (inactive)

**Q.** And the GI50 (MDA-MB-231)?
**A.** > 100 µM (inactive)

**Q.** And the GI50 (786-0)?
**A.** 36 µM (inactive)

**Q.** And the GI50 (HT-29)?
**A.** 55.7 µM (inactive)

**Q.** What about the GI50 (SF-268) of the same compound?
**A.** > 100 µM (inactive)

**Q.** And the GI50 (HCT-116)?
**A.** 65.9 µM (inactive)

**Q.** What about the GI50 (PC-3) of the same compound?
**A.** 10.8 µM (inactive)

**Q.** What about the GI50 (SR) of the same compound?
**A.** 38.5 µM (inactive)

**Q.** What about the GI50 (SK-MEL-5) of the same compound?
**A.** 41.8 µM (inactive)

**Q.** And the GI50 (CCRF-CEM)?
**A.** 32.3 µM (inactive)

**Q.** And the GI50 (SK-MEL-28)?
**A.** > 100 µM (inactive)

**Q.** What about the GI50 (ACHN) of the same compound?
**A.** 33.8 µM (inactive)

**Q.** What about the GI50 (MDA-N) of the same compound?
**A.** > 100 µM (inactive)

**Q.** And the GI50 (HL-60)?
**A.** 19 µM (inactive)

**Q.** And the GI50 (Malme-3M)?
**A.** > 100 µM (inactive)
